Laboratory results taken from ChEMBL document CHEMBL3797052 (Eur J Med Chem, 2016).

Experiments:
[1] = Antiproliferative activity against human COLO205 cells assessed as growth inhibition after 48 hrs by sulforhodamine B assay; format: functional; details: COLO 205, 48 h; for CC50: read-out: LC50 (the source's name)
[2] = Antiproliferative activity against human LOXIMVI cells assessed as cell growth at 10^-6 M after 48 hrs by sulforhodamine B assay; format: functional; details: LOX IMVI, read-out: Activity
[3] = Antiproliferative activity against human MOLT4 cells assessed as cell growth at 10^-6 M after 48 hrs by sulforhodamine B assay; format: functional; details: MOLT-4, 48 h, read-out: Activity
U-251 = assay: Antiproliferative activity against human U251 cells assessed as cell growth at 10^-6 M after 48 hrs by sulforhodamine B assay; format: functional; details: U-251, 48 h, read-out: Activity
[4] = Antiproliferative activity against human DU145 cells assessed as cell growth at 10^-6 M after 48 hrs by sulforhodamine B assay; format: functional; details: DU-145, 48 h, read-out: Activity
NCI-H322M = assay: Antiproliferative activity against human NCI-H322M cells assessed as cell growth at 10^-7 M after 48 hrs by sulforhodamine B assay; format: functional; details: read-out: Activity
[5] = Antiproliferative activity against human PC3 cells assessed as cell growth at 10^-6 M after 48 hrs by sulforhodamine B assay; format: functional; details: PC-3, 48 h, read-out: Activity
[6] = Antiproliferative activity against human HCT15 cells assessed as cell growth at 10^-4 M after 48 hrs by sulforhodamine B assay; format: functional; details: HCT-15, 48 h, read-out: Activity
T47D = assay: Antiproliferative activity against human T47D cells assessed as cell growth at 10^-4 M after 48 hrs by sulforhodamine B assay; format: functional; details: read-out: Activity
[7] = Antiproliferative activity against human RXF393 cells assessed as cell growth at 10^-8 M after 48 hrs by sulforhodamine B assay; format: functional; details: RXF 393, 48 h, read-out: Activity
HT-29 = assay: Antiproliferative activity against human HT-29 cells assessed as cell growth at 10^-4 M after 48 hrs by sulforhodamine B assay; format: functional; details: HT-29, 48 h, read-out: Activity
[8] = Antiproliferative activity against human SF295 cells assessed as cell growth at 10^-7 M after 48 hrs by sulforhodamine B assay; format: functional; details: SF-295, 48 h, read-out: Activity
[9] = system: Serine/threonine-protein kinase B-raf (Homo sapiens), P15056 [V600E]; assay: Inhibition of BRAF V600E mutant (unknown origin) at 10 uM measured after 40 mins by scintillation counting
Chain of Serine/threonine-protein kinase B-raf (Homo sapiens), P15056 [V600E] (P15056 whole entry V600E): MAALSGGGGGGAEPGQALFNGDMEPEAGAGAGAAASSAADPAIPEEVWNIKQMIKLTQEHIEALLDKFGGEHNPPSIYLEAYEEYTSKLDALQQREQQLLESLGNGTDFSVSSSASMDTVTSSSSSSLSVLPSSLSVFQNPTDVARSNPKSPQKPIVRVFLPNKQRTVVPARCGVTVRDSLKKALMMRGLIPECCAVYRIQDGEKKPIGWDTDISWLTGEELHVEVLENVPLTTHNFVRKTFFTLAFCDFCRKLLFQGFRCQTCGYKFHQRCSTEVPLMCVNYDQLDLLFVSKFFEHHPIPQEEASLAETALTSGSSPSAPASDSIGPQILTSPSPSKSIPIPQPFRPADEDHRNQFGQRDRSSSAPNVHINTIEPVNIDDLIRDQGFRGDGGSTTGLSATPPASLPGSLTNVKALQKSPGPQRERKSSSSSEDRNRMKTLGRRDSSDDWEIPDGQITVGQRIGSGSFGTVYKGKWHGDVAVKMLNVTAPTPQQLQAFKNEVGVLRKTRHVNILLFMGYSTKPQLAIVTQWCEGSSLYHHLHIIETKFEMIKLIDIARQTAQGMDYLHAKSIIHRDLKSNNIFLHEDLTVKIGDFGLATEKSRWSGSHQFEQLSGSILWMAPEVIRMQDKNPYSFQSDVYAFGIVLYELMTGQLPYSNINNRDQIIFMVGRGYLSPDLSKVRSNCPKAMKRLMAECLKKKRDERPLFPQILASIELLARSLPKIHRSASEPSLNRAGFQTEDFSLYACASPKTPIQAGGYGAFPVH

[10] = Antiproliferative activity against human UACC62 cells assessed as cell growth at 10^-7 M after 48 hrs by sulforhodamine B assay; format: functional; details: UACC-62, 48 h, read-out: Activity
MDA-MB-231 [11] = assay: Antiproliferative activity against human MDA-MB-231 cells assessed as cell growth at 10^-8 M after 48 hrs by sulforhodamine B assay; format: functional; details: MDA-MB-231, 48 h, read-out: Activity
EKVX [12] = assay: Antiproliferative activity against human EKVX cells assessed as cell growth at 10^-6 M after 48 hrs by sulforhodamine B assay; format: functional; details: read-out: Activity
[13] = Antiproliferative activity against human HCT15 cells assessed as growth inhibition after 48 hrs by sulforhodamine B assay; format: functional; details: HCT-15, 48 h
[14] = Antiproliferative activity against human Caki1 cells assessed as cell growth at 10^-6 M after 48 hrs by sulforhodamine B assay; format: functional; details: CAKI-1, 48 h, read-out: Activity
[15] = Antiproliferative activity against human COLO205 cells assessed as cell growth at 10^-8 M after 48 hrs by sulforhodamine B assay; format: functional; details: COLO 205, 48 h, read-out: Activity
EKVX [16] = assay: Antiproliferative activity against human EKVX cells assessed as cell growth at 10^-7 M after 48 hrs by sulforhodamine B assay; format: functional; details: read-out: Activity
MDA-MB-231 [17] = assay: Antiproliferative activity against human MDA-MB-231 cells assessed as growth inhibition after 48 hrs by sulforhodamine B assay; format: functional; details: MDA-MB-231, 48 h; for CC50: read-out: LC50 (the source's name)
[18] = Antiproliferative activity against human OVCAR3 cells assessed as cell growth at 10^-8 M after 48 hrs by sulforhodamine B assay; format: functional; details: OVCAR-3, 48 h, read-out: Activity
[19] = Antiproliferative activity against human UACC257 cells assessed as cell growth at 10^-6 M after 48 hrs by sulforhodamine B assay; format: functional; details: UACC-257, 48 h, read-out: Activity
NCI-H226 = assay: Antiproliferative activity against human NCI-H226 cells assessed as cell growth at 10^-7 M after 48 hrs by sulforhodamine B assay; format: functional; details: NCI-H226, 48 h, read-out: Activity
MDA-MB-468 = assay: Antiproliferative activity against human MDA-MB-468 cells assessed as cell growth at 10^-4 M after 48 hrs by sulforhodamine B assay; format: functional; details: MDA-MB-468, 48 h, read-out: Activity
[20] = Antiproliferative activity against human HL-60(TB) cells assessed as growth inhibition after 48 hrs by sulforhodamine B assay; format: functional; details: HL-60, 48 h
NCI-H23 = assay: Antiproliferative activity against human NCI-H23 cells assessed as cell growth at 10^-7 M after 48 hrs by sulforhodamine B assay; format: functional; details: NCI-H23, 48 h, read-out: Activity
SN12C = assay: Antiproliferative activity against human SN12C cells assessed as cell growth at 10^-4 M after 48 hrs by sulforhodamine B assay; format: functional; details: read-out: Activity
CCRF-CEM = assay: Antiproliferative activity against human CCRF-CEM cells assessed as cell growth at 10^-8 M after 48 hrs by sulforhodamine B assay; format: functional; details: read-out: Activity
[21] = biological target: Voltage-gated inwardly rectifying potassium channel KCNH2 (Homo sapiens, UniProt Q12809); assay: Inhibition of human ERG assessed as reduction in channel current by automated patch-clamp electrophysiology assay
Chain of Voltage-gated inwardly rectifying potassium channel KCNH2 (Q12809 whole entry): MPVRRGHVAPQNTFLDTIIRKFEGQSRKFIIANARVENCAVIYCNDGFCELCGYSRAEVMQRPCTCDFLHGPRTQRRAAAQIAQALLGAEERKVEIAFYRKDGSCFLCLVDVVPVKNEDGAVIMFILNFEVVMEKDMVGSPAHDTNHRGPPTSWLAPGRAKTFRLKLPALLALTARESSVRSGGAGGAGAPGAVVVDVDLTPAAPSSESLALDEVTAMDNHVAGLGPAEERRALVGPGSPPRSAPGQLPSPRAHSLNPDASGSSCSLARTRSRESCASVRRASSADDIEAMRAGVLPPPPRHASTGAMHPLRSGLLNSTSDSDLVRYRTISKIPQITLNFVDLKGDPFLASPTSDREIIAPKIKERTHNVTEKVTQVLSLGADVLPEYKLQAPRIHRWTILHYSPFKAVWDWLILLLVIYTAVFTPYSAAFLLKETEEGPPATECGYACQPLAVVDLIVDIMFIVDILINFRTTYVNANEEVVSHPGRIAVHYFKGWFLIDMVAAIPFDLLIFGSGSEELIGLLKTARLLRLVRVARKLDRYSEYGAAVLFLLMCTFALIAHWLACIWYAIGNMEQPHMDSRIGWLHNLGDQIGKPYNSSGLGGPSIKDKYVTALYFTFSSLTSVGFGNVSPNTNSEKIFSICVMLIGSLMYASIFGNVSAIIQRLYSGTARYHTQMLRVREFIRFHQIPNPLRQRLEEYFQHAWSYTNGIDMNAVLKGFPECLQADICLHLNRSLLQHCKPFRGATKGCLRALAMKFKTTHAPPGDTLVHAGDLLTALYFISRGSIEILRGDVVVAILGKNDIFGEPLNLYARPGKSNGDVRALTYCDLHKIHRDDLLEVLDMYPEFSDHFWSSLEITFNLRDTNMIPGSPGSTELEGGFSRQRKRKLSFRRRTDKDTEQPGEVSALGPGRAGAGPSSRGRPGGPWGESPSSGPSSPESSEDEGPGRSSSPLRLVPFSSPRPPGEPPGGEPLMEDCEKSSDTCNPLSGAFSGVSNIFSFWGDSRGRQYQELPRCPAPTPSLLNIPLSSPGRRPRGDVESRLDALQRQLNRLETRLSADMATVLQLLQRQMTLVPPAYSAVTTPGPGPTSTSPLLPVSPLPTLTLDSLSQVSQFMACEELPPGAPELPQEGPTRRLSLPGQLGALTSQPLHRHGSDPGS

KM12 [22] = assay: Antiproliferative activity against human KM12 cells assessed as cell growth at 10^-4 M after 48 hrs by sulforhodamine B assay; format: functional; details: KM12, 48 h, read-out: Activity
[23] = Antiproliferative activity against human SKOV3 cells assessed as cell growth at 10^-8 M after 48 hrs by sulforhodamine B assay; format: functional; details: SK-OV-3, 48 h, read-out: Activity
[24] = Antiproliferative activity against human TK10 cells assessed as cell growth at 10^-8 M after 48 hrs by sulforhodamine B assay; format: functional; details: TK-10, 48 h, read-out: Activity
[25] = Antiproliferative activity against human HOP92 cells assessed as cell growth at 10^-8 M after 48 hrs by sulforhodamine B assay; format: functional; details: HOP-92, 48 h, read-out: Activity
KM12 [26] = assay: Antiproliferative activity against human KM12 cells assessed as cell growth at 10^-6 M after 48 hrs by sulforhodamine B assay; format: functional; details: KM12, 48 h, read-out: Activity
[27] = Antiproliferative activity against human OVCAR5 cells assessed as growth inhibition after 48 hrs by sulforhodamine B assay; format: functional; details: OVCAR-5, 48 h
[28] = read-out: LC50 (the source's name)

Structure (SMILES): CNC(=O)c1cc(Oc2ccc3nc(NC(=O)Nc4ccc(Cl)c(Cl)c4)sc3c2)ccn1
- GI50 [1]: 4.25 µM
- TGI [1]: > 100 µM
- CC50 [1]: > 100 µM
- growth at 1 µM [2]: 95%
- growth at 1 µM [3]: 99%
- growth at 1 µM (U-251): 98%
- growth at 1 µM [4]: 97%
- growth at 0.1 µM (NCI-H322M): 87%
- growth at 1 µM [5]: 92%
- growth at 100 µM [6]: 26%
- growth at 100 µM (T47D): -21%
- growth at 0.01 µM [7]: 99%
- growth at 100 µM (HT-29): -49%
- growth at 0.1 µM [8]: 90%
- inhibition [9]: 67.6%
- growth at 0.1 µM [10]: 95%
- growth at 0.01 µM (MDA-MB-231 [11]): 89%
- growth at 1 µM (EKVX [12]): 86%
- GI50 [13]: 3.71 µM
- LC50 [13]: > 100 µM
- TGI [13]: > 100 µM
- growth at 1 µM [14]: 98%
- growth at 0.01 µM [15]: 102%
- growth at 0.1 µM (EKVX [16]): 93%
- GI50 (MDA-MB-231 [17]): 2.15 µM
- TGI (MDA-MB-231 [17]): 6.43 µM
- CC50 (MDA-MB-231 [17]): > 100 µM
- growth at 0.01 µM [18]: 101%
- growth at 1 µM [19]: 89%
- growth at 0.1 µM (NCI-H226): 106%
- growth at 100 µM (MDA-MB-468): -44%
- GI50 [20]: > 100 µM
- TGI [20]: > 100 µM
- CC50 [20, 28]: > 100 µM
- growth at 0.1 µM (NCI-H23): 92%
- growth at 100 µM (SN12C): 9%
- growth at 0.01 µM (CCRF-CEM): 102%
- IC50 [21]: > 100 µM
- growth at 100 µM (KM12 [22]): 6%
- growth at 0.01 µM [23]: 110%
- growth at 0.01 µM [24]: 107%
- growth at 0.01 µM [25]: 100%
- growth at 1 µM (KM12 [26]): 91%

Structure (SMILES): CNC(=O)c1cc(Oc2ccc(NC(=O)Nc3ccc(Cl)c(C(F)(F)F)c3)cc2)ccn1 [SORAFENIB]
- GI50 [1]: 2 µM
- TGI [1]: 7.94 µM
- CC50 [1]: 31.6 µM
- GI50 [27]: 3.16 µM
- TGI [27]: 20 µM
- CC50 [27, 28]: 79.4 µM
- GI50 [13]: 2.51 µM
- TGI [13]: 12.6 µM
- GI50 (MDA-MB-231 [17]): 1.26 µM
- TGI (MDA-MB-231 [17]): 3.98 µM
- CC50 (MDA-MB-231 [17]): 20 µM
- GI50 [20]: 1.58 µM
